In article PMC6066186 (Angewandte Chemie (International ed. in English), 2018):
Values after ≈ are worked out from the molar mass of the structure shown.

Columns and labels:
[1] = system: Mtb; assay: Combination with isoniazid, Mtb growth; assay type: cell-based, Mycobacterium tuberculosis; details: 250 nm, in the absence of TQZ
[2] = system: Mtb; details: cited from earlier work
[3] = system: NADH oxidation in purified membranes; details: cited from earlier work
[4] = system: Mtb; assay: Growth inhibition; assay type: cell-based, Mycobacterium tuberculosis
[5] = system: ATP production through oxidative phosphorylation in membrane vesicles derived from mycobacteria; assay: NADH-initiated ATP synthesis in mycobacterial membrane vesicles; assay type: biochemical; details: read-out: IC50, inhibition of ATP synthesis, NADH added

NNC(=O)c1ccncc1 [INH, isoniazid]
effect on Mtb replication [1]: completely prevents replication

C=C(C)[C@H]1Cc2c(ccc3c2O[C@@H]2COc4cc(OC)c(OC)cc4[C@@H]2C3=O)O1 [rotenone]
effect on mycobacterial growth [2]: little effect
effect on NADH oxidation [3]: little effect

O=C(CSc1nc2cccc(F)c2c(=O)[nH]1)NC1CCCCC1 [CBR-3465]
MIC [4]: 0.16 µM (≈ 0.0537 µg/mL)

COc1nc2ccc(Br)cc2cc1[C@@H](c1ccccc1)[C@@](O)(CCN(C)C)c1cccc2ccccc12 [bedaquiline]
IC50 [5]: 6.9 nM
